Values belong to the compound of their own block, whether it stands above or below them.
Assays:
[1] = target: soluble, sperm-specific adenylate cyclase (sAC) (Homo sapiens, UniProt Q96PN6); test: sAC assay (HTRF cAMP detection); assay type: biochemical; settings: read-out: IC50 (inhibition of soluble adenylate cyclase)
Excerpt: In a suitable buffer system, soluble, sperm-specific adenylate cyclase catalyzes the conversion of adenosine triphosphate (ATP) to cyclic adenosine monophosphate (cAMP) and pyrophosphate. Free cAMP generated in this way is then used in a competitive detection technique, in which the binding of a europium cryptate Eu[K]-labeled anti-cAMP antibody (anti-cAMP-Eu[K]-AB) to a modified allophycocyanine-1 molecule labeled with cAMP molecules (cAMP-XL665) is prevented. In the absence of exogenous cAMP, after excitation at 335 nm there is Fluorescence Resonance Energy Transfer (FRET) between the anti-cAMP-Eu[K]-AB (FRET donor) and the cAMP-XL665 molecule (FRET acceptor). This process is quantified, time-resolved, on the basis of the emission of the FRET acceptor XL665 (665 nm and 620 nm). A decrease in signal (measured as Well Ratio; calculated from the Formula: [(E665 nm/E620 nm)×10000]) can be attributed to the presence of cAMP and thus to the activity of sAC. First, 1.5 μl of the test substance (in 30% DMSO) is placed in each well of a 384-well test plate (polystyrene; 384, NV), and in the solvent controls only 30% DMSO. Then 10 μl of a dilute sAC enzyme solution is applied (enzyme stock solution in 300 mM NaCl, 10% glycerol; pH 7.6; enzyme intermediate and final dilution a) 1:10 and b) 1:2000 in each case in: 1.0 mM MnCl2; 0.2% BSA; 50 mM Tris pH 7.5 in H2O). The enzyme reaction is started by adding 5 μl of the ATP substrate solution (200 μM ATP in H2O) and after incubation (25 min at room temperature) stopped by adding 5 μl of the stop solution (200 μM EDTA in PBS). Finally the whole reaction is adjusted to a total volume of 91.5 μl by adding 70 μl PBS.
Next, 8 μl of detection solution 1 is placed in a well of the 384-well measuring plate (measuring plate: polystyrene; 384, SV—black; detection solution 1: 50 μl cAMP-XL665; 950 μl reconstituted buffer; 2200 μl PBS; cAMP-XL665: prepared by adding 5 ml H2O to the lyophilized product according to the instructions in Cis bio Kit: #62AMPPEC; storage: in aliquots at −80° C.). Next, 3 μl from the 91.5 μl is added to the corresponding well of the test plate. Finally, 8 μl of detection solution 2 is added (detection solution 2: 50 μl anti-cAMP-Eu[K]-AB; 950 μl reconstituted buffer; 2200 μl PBS; anti-cAMP-Eu[K]-AB: prepared according to the instructions in Cis bio Kit: #62AMPPEC; storage: in aliquots at −80° C.).
After further incubation for 90 min at room temperature, the HTRF result is measured either on the Packard Discovery or with the RubiStar HTRF measuring instrument (delay: 50 μs; integration time: 400 μs).

[2] = known from the literature; cited from earlier work

soluble, sperm-specific adenylate cyclase (sAC), sequence (Q96PN6 whole entry): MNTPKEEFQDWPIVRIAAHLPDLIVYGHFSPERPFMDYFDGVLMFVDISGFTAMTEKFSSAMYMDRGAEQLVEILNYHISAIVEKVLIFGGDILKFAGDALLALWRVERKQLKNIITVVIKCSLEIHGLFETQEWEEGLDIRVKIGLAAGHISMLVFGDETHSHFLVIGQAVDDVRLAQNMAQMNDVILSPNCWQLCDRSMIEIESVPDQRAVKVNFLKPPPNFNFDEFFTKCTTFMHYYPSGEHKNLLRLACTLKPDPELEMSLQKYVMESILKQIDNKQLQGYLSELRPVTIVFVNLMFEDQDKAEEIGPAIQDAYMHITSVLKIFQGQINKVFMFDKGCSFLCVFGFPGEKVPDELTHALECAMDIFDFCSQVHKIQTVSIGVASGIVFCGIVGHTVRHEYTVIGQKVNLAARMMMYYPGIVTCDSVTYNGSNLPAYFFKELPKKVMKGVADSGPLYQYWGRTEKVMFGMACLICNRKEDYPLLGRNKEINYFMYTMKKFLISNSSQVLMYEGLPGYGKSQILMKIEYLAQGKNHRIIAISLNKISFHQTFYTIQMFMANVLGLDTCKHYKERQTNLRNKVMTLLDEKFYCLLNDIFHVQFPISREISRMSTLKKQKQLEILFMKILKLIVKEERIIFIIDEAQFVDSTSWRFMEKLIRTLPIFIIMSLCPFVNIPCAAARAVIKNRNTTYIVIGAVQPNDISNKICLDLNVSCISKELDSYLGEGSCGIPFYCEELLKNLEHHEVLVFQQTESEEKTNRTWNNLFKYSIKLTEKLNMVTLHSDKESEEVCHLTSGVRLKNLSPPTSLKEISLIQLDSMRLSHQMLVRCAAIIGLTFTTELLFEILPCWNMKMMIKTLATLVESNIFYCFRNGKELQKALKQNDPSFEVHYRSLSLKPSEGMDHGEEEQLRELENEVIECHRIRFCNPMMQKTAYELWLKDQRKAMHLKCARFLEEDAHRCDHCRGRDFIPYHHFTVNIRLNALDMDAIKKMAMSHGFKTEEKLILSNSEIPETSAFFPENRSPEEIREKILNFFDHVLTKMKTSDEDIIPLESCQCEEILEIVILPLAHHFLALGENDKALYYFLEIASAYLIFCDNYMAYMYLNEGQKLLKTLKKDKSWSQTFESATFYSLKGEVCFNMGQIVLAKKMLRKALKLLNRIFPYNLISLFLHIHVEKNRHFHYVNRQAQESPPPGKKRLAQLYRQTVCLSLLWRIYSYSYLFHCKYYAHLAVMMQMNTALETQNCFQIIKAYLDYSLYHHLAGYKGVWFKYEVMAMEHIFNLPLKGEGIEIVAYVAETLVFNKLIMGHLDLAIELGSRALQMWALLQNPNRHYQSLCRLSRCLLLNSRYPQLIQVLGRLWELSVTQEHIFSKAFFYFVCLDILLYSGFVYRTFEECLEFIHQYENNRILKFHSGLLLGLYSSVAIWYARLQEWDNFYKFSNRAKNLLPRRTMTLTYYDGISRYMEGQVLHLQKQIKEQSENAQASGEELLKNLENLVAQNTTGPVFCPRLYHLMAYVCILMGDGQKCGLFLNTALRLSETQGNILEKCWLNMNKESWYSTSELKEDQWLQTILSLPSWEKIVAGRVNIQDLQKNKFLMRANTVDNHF

Compound: CC(C)(C)c1ccc(S(=O)(=O)Nc2cnc3[nH]c(C(=O)N[C@H]4CCC[C@H]4O)c(-c4ccccc4)c3c2)cc1 [Example 8, (1S,2R)—N-(2-Hydroxycyclopentyl)-5-(4-tert-butylphenylsulfonyl-amino)-3-phenyl-1H-pyrrolo[2,3-b]pyridine-2-carboxamide]
IC50 [1]: 13 nM

Compound: O=C(N[C@H]1CCC[C@H]1O)c1[nH]c2ncc(NS(=O)(=O)c3ccc(C(F)(F)F)cc3)cc2c1-c1ccccc1 [Example 22, (1S,2R)—N-(2-Hydroxycyclopentyl)-3-phenyl-5-(4-trifluoromethyl-phenylsulfonylamino)-1H-pyrrolo[2,3-b]pyridine-2-carboxamide]
IC50 [1]: 25 nM

Compound: Cc1cc2c(C(C)C)c(O)c(O)c(C=O)c2c(O)c1-c1c(C)cc2c(C(C)C)c(O)c(O)c(C=O)c2c1O [gossypol]
toxicity [2]: inherently toxic

Other lines, results leading:

IC50 [1]: 37 nM
Compound: CC(CO)NC(=O)c1[nH]c2ncc(NS(=O)(=O)c3ccc(C(C)(C)C)cc3)cc2c1-c1ccccc1 (racemic) [Example 6, (±)-N-(2-Hydroxy-1-methylethyl)-5-(4-tert-butylphenylsulfonyl-amino)-3-phenyl-1H-pyrrolo[2,3-b]pyridine-2-carboxamide]

IC50 [1]: 64 nM
Compound: CC(C)(C)c1ccc(S(=O)(=O)Nc2cnc3[nH]c(C(=O)NCC4CCCO4)c(-c4ccccc4)c3c2)cc1 (racemic) [Example 10, (±)-N-(Tetrahydrofuran-2-ylmethyl)-5-(4-tert-butylphenylsulfonyl-amino)-3-phenyl-1H-pyrrolo[2,3-b]pyridine-2-carboxamide]
